Data from patent US5330973A, “Lipopeptide derivatives” (Merck & Co., Inc., priority 1990, dated 1994).

Tests used:
[1] = system: C. parapsilosis; experiment: Minimum fungicidal concentration, microbroth dilution assay in YNBD; type: cell-based; settings: C. parapsilosis MY 1010
Experimental: (§1) The compounds of the present invention are active against many fungi and particularly against Candida species. […] In carrying out the assay, Compound A-2a and A-3a were solubilized in 10% dimethyl sulfoxide (DMSO) and diluted to 2560 μg/ml. The compounds were then diluted to 256 μg/ml in YNBD. […] of the suspension was dispensed to the top row of a 96-well plate (each well containing 0.15 ml of YNDB) resulting in a drug concentration of 128 μg/ml. Two-fold dilutions were then made from the top row to obtain final drug concentrations ranging from 128 to 0.06 μg/ml. The yeast cultures, maintained on Sabouraud dextrose agar were transferred to YM broth (Difco) and incubated overnight at 35° C. with shaking (250 rpm). […] The microplates were incubated at 35° C. for 24 hours. The minimum inhibitory concentrations (MICs) were recorded as the lowest concentrations of drug showing no visible growth. After recording the MIC, the plates were shaken to resuspend the cells. Thereafter, […] samples from the wells in the 96-well microplate were transferred to a single well tray containing Sabouraud dextrose agar. The inoculated trays were incubated 24 hours at 28° C. and then read. […]

[2] = system: C. albicans; experiment: as above; type: cell-based
Experimental: as §1

[3] = system: C. tropicalis; experiment: as above; type: cell-based; settings: C. tropicalis MY 1012
Experimental: as §1

[4] = system: Pneumocystis carinii; experiment: Pneumocystis carinii pneumonia in immunosuppressed rats, elimination of cysts; type: in vivo, Sprague-Dawley rats; settings: I.P. twice daily for four days, lungs read by microscopic analysis of stained slides
Experimental: In a representative study, the effectiveness of Compound A-2a was determined. Sprague-Dawley rats (weighing approximately 250 grams) were immuno-suppressed with dexasone in the drinking water (2.0 mg/L) and maintained on a low protein diet for five weeds to induce the development of pneumocystis pneumonia from a latent infection. […] Six rats (weighing approximately 150 grams) were injected twice daily for four days intraperitoneally (I.P.) with Compound A-2a in 0.25 ml of vehicle (distilled water). A vehicle control was also carried out. All animals continued to receive dexasone in the drinking water and low protein diet during the treatment period. At the completion of the treatment, all animals were sacrificed, the lungs were removed and processed, and the extent of disease determined by microscopic analysis of stained slides.
In a similar experiment, the animals were sacrificed, the lungs removed and processed, and the extent of disease determined by microscopic analysis of stained slides.

Substance	Minimum Fungicidal Concentration [1]	Minimum Fungicidal Concentration ([2]; C. albicans MY 1028)	Minimum Fungicidal Concentration ([2]; C. albicans MY 1055)	Minimum Fungicidal Concentration ([2]; C. albicans MY 1208)	Minimum Fungicidal Concentration [3]	ED90 for eliminating P. carinii cysts [4]
1-[4-hydroxy-N2-(10,12-dimethyl-1-oxotetradecyl)-ornithine]-4-[3-hydroxy-4' -O-phosphoryl-homotyrosine]-5-[3-hydroxyglutamine]echinocandin B [Compound A-2a]	16 µg/mL	1 µg/mL	1 µg/mL	1 µg/mL	0.5 µg/mL	approximately 2 mg/kg
1-[N2-(10,12-dimethyl-1-oxotetradecyl)-ornithine]-4-[3,4-dihydroxy-4'-O-pho sphoryl-homotyrosine]-5-[3-hydroxyglutamine] echinocandin B [Compound A-3a]	> 128 µg/mL	4 µg/mL	2 µg/mL	4 µg/mL	1 µg/mL	approximately 2.5 mg/kg
